Source: patent publication US20260285850A1, “SUBSTITUTED OXAZOLIDINONES AND IMIDAZOLINONES AS HERBICIDES” (FMC CORPORATION, priority 2023, published 2026)

Assays:
Assay type in all cases: in vivo
[1] = tested on: barnyardgrass (Echinochloa crus-galli); assay: Test A preemergence soil spray, visual injury rating 0-100; details: 10 days
In short: (§1)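 Plants in a loam and sand soil blend were treated with each test chemical, in a non-phytotoxic solvent system including surfactant, either sprayed on seeded soil before emergence or applied after emergence at the one- to two-leaf stage. Ten days later in the greenhouse, plants were compared with untreated controls and visually rated from 0 (no effect) to 100 (complete control).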

[2] = tested on: blackgrass (Alopecurus myosuroides); assay: as above; details: 10 days
In short: as §1

[3] = tested on: corn (Zea mays); assay: as above; details: 10 days
In short: as §1

[4] = tested on: green foxtail (Setaria viridis); assay: as above; details: 10 days
In short: as §1

[5] = tested on: kochia (Bassia scoparia); assay: as above; details: 10 days
In short: as §1

[6] = tested on: oat, wild (wild oat, Avena fatua); assay: as above; details: 10 days
In short: as §1

[7] = tested on: palmer (palmer amaranth, palmer pigweed, Amaranthus palmeri); assay: as above; details: 10 days
In short: as §1

[8] = tested on: ragweed (common ragweed, Ambrosia artemisiifolia); assay: as above; details: 10 days
In short: as §1

[9] = tested on: ryegrass, Italian (italian ryegrass, Lolium multiflorum); assay: as above; details: 10 days
In short: as §1

[10] = tested on: soybean (Glycine max); assay: as above; details: 10 days
In short: as §1

[11] = tested on: wheat (Triticum aestivum); assay: as above; details: 10 days
In short: as §1

[12] = tested on: barnyardgrass (Echinochloa crus-galli); assay: Test A postemergence application, visual injury rating 0-100
In short: as §1

[13] = tested on: blackgrass (Alopecurus myosuroides); assay: as above
In short: as §1

[14] = tested on: corn (Zea mays); assay: as above
In short: as §1

[15] = tested on: galium (catchweed bedstraw, Galium aparine); assay: as above
In short: as §1

[16] = tested on: green foxtail (Setaria viridis); assay: as above
In short: as §1

[17] = tested on: horseweed (Erigeron canadensis); assay: as above
In short: as §1

[18] = tested on: kochia (Bassia scoparia); assay: as above
In short: as §1

[19] = tested on: oat, wild (wild oat, Avena fatua); assay: as above
In short: as §1

[20] = tested on: palmer (palmer amaranth, palmer pigweed, Amaranthus palmeri); assay: as above
In short: as §1

[21] = tested on: ragweed (common ragweed, Ambrosia artemisiifolia); assay: as above
In short: as §1

[22] = tested on: ryegrass, Italian (italian ryegrass, Lolium multiflorum); assay: as above
In short: as §1

[23] = tested on: soybean (Glycine max); assay: as above
In short: as §1

[24] = tested on: wheat (Triticum aestivum); assay: as above
In short: as §1

[25] = tested on: barnyardgrass (Echinochloa crusgalli); assay: Test B flooded paddy test, visual plant response rating 0-100; details: 250 g ai/ha, Flood, applied to paddy water, evaluated after 13 days
In short: (§2)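 Visual evaluation after 13 days. Water-applied treatment, 3 cm flood depth held constant, plants at 2-leaf stage at treatment.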

[26] = tested on: ducksalad (Heteranthera limosa); assay: as above; details: 250 g ai/ha, Flood, applied to paddy water, evaluated after 13 days
In short: as §2

[27] = tested on: rice (Oryza sativa); assay: as above; details: 250 g ai/ha, Flood, applied to paddy water, evaluated after 13 days
In short: as §2

[28] = tested on: sedge, umbrella (small-flower umbrella sedge, Cyperus difformis); assay: as above; details: 250 g ai/ha, Flood, applied to paddy water, evaluated after 13 days
In short: as §2

[29] = 62 g ai/ha, 0 = no effect, 100 = complete control
[30] = 62 g ai/ha, postemergence, 10 days, 0 = no effect, 100 = complete control
[31] = Postemergence, 16 g ai/ha, greenhouse 10 days, 0 no effect, 100 complete control

CC(C)COC(=O)C1=CCC(NC(=O)C2(C)CN(c3cc(F)cc(F)c3)C(=O)O2)C1 (stereo not shown) [Compound 97]
Barnyardgrass plant response rating ([1]; 16 g ai/ha, 0 to 100 scale): 0 | Barnyardgrass plant response rating (0-100) [1, 29]: 0 | Blackgrass plant response rating ([2]; 16 g ai/ha, 0 to 100 scale): 0 | Blackgrass plant response rating (0-100) [2, 29]: 0 | Corn plant response rating ([3]; 16 g ai/ha, 0 to 100 scale): 0 | Corn plant response rating (0-100) [3, 29]: 0 | Foxtail, Green plant response rating ([4]; 16 g ai/ha, 0 to 100 scale): 20 | Foxtail, Green plant response rating (0-100) [4, 29]: 60 | Kochia plant response rating ([5]; 16 g ai/ha, 0 to 100 scale): 0 | Kochia plant response rating (0-100) [5, 29]: 0 | Oat, Wild plant response rating ([6]; 16 g ai/ha, 0 to 100 scale): 0 | Oat, Wild plant response rating (0-100) [6, 29]: 0 | Pigweed, Palmer plant response rating ([7]; 16 g ai/ha, 0 to 100 scale): 0 | Pigweed, Palmer plant response rating (0-100) [7, 29]: 0 | Ragweed plant response rating ([8]; 16 g ai/ha, 0 to 100 scale): 0 | Ragweed plant response rating (0-100) [8, 29]: 0 | Ryegrass, Italian plant response rating ([9]; 16 g ai/ha, 0 to 100 scale): 0 | Ryegrass, Italian plant response rating (0-100) [9, 29]: 0 | Soybean plant response rating ([10]; 16 g ai/ha, 0 to 100 scale): 0 | Soybean plant response rating (0-100) [10, 29]: 0 | Wheat plant response rating ([11]; 16 g ai/ha, 0 to 100 scale): 0 | Wheat plant response rating (0-100) [11, 29]: 10 | Barnyardgrass plant response rating (0-100) [12, 30]: 20 | Barnyardgrass plant response rating (0 to 100 scale) [12, 31]: 0 | Blackgrass plant response rating (0-100) [13, 30]: 0 | Blackgrass plant response rating (0 to 100 scale) [13, 31]: 0 | Corn plant response rating (0-100) [14, 30]: 0 | Corn plant response rating (0 to 100 scale) [14, 31]: 0 | Galium plant response rating (0-100) [15, 30]: 60 | Galium plant response rating (0 to 100 scale) [15, 31]: 20 | Foxtail, Green plant response rating (0-100) [16, 30]: 0 | Foxtail, Green plant response rating (0 to 100 scale) [16, 31]: 0 | Horseweed plant response rating (0-100) [17, 30]: 0 | Horseweed plant response rating (0 to 100 scale) [17, 31]: 0 | Kochia plant response rating (0-100) [18, 30]: 70 | Kochia plant response rating (0 to 100 scale) [18, 31]: 30 | Oat, Wild plant response rating (0-100) [19, 30]: 0 | Oat, Wild plant response rating (0 to 100 scale) [19, 31]: 0 | Pigweed, Palmer plant response rating (0-100) [20, 30]: 10 | Pigweed, Palmer plant response rating (0 to 100 scale) [20, 31]: 0 | Ragweed plant response rating (0-100) [21, 30]: 20 | Ragweed plant response rating (0 to 100 scale) [21, 31]: 0 | Ryegrass, Italian plant response rating (0-100) [22, 30]: 0 | Ryegrass, Italian plant response rating (0 to 100 scale) [22, 31]: 0 | Soybean plant response rating (0-100) [23, 30]: 40 | Soybean plant response rating (0 to 100 scale) [23, 31]: 0 | Wheat plant response rating (0-100) [24, 30]: 10 | Wheat plant response rating (0 to 100 scale) [24, 31]: 0 | Plant response rating, Barnyardgrass (0 to 100 scale, 0 is no effect and 100 is complete control) [25]: 0 | Plant response rating, Ducksalad (0 to 100 scale, 0 is no effect and 100 is complete control) [26]: 0 | Plant response rating, Rice (0 to 100 scale, 0 is no effect and 100 is complete control) [27]: 0 | Plant response rating, Sedge, Umbrella (0 to 100 scale, 0 is no effect and 100 is complete control) [28]: 0
